Measurements as given in ChEMBL document CHEMBL1201862, “PubChem BioAssay data set” (2004).
Active and inactive are the calls of the source.

How the values were obtained:
Beta-galactosidase = Beta-galactosidase (Escherichia coli, UniProt Q8VNN2); assay: PubChem AID 485352; format: functional
[1] = biological target: T1, Type-1 angiotensin II receptor (Homo sapiens, UniProt P30556); assay: AT1 receptor antagonists, dose response, selectivity assay for APJ receptor antagonist project, cell-based, uHTS hits (AID 463214); format: functional;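 further: antagonist potency against angiotensin II stimulated AT1 response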
T1 sequence (P30556 whole entry): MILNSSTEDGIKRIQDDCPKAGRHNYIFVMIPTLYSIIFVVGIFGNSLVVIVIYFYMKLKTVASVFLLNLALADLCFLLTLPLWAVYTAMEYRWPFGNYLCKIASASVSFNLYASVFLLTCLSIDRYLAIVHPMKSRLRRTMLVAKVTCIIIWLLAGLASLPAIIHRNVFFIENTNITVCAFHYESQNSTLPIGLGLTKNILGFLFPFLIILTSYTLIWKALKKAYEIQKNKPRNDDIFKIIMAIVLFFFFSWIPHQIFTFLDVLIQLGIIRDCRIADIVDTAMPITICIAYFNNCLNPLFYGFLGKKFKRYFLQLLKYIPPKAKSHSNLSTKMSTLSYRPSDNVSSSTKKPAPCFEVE

[2] = biological target: T2, Calpain-2 catalytic subunit (Sus scrofa, UniProt P43367); assay: pig calpain II inhibitor potency, dose response, biochemical, fluorogenic peptide substrate (AID 1420); format: functional
T2 sequence (P43367 whole entry): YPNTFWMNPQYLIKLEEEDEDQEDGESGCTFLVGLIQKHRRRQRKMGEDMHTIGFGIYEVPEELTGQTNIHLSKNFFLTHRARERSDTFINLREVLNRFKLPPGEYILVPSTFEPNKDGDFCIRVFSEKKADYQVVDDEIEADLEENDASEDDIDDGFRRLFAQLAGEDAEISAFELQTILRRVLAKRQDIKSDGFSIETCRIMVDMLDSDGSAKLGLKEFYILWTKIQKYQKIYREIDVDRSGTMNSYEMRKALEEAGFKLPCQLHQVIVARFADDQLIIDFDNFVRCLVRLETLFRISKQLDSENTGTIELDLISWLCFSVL

Large T antigen = Large T antigen (Simian virus 40, UniProt P03070); format: functional, Betapolyomavirus macacae;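 further: Confirmatory-stage PubChem screen for compounds that inhibit SV40 T antigen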
[3] = biological target: Induced myeloid leukemia cell differentiation protein Mcl-1 (Homo sapiens, UniProt Q07820); format: functional
Chain of Induced myeloid leukemia cell differentiation protein Mcl-1 (Q07820 whole entry): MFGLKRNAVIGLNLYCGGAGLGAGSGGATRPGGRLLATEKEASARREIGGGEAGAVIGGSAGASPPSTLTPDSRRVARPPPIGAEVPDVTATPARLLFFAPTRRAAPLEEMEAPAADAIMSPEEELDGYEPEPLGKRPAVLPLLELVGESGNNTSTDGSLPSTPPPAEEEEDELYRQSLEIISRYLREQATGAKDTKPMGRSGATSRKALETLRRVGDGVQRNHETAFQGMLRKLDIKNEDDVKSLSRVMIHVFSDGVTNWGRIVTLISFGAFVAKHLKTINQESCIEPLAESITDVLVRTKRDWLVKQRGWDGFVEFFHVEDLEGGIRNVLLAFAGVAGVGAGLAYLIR

[4] = biological target: Intestinal-type alkaline phosphatase (Mus musculus, UniProt P24822); assay: PubChem AID 488785; format: functional
[5] = biological target: T3, Alkaline phosphatase, tissue-nonspecific isozyme (Homo sapiens, UniProt P05186); assay: TNAP enzyme inhibition by screening hits, dose response, selectivity assay for mouse IAP inhibitor project, biochemical, human TNAP, uHTS hits (AID 488906); format: functional
T3 sequence (P05186 whole entry): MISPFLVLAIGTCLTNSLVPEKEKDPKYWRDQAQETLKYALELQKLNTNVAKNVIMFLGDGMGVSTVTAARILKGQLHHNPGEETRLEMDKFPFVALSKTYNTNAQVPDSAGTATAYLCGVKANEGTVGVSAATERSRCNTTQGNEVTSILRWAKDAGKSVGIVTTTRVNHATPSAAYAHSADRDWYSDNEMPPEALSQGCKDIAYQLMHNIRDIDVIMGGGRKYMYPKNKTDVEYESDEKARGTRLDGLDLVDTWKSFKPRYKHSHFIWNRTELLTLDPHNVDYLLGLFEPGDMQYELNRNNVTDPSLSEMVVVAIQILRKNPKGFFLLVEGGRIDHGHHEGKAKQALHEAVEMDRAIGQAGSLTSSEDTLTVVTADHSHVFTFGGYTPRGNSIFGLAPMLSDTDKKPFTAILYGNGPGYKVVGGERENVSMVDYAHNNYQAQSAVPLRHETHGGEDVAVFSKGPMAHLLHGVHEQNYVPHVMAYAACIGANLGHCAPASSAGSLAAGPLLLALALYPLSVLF

[6] = biological target: Intestinal-type alkaline phosphatase (Homo sapiens, UniProt P09923); assay: inhibition of human intestinal alkaline phosphatase – biochemical, dose response (AID 488876); format: functional
Chain of Intestinal-type alkaline phosphatase (Homo sapiens, UniProt P09923) (P09923 whole entry): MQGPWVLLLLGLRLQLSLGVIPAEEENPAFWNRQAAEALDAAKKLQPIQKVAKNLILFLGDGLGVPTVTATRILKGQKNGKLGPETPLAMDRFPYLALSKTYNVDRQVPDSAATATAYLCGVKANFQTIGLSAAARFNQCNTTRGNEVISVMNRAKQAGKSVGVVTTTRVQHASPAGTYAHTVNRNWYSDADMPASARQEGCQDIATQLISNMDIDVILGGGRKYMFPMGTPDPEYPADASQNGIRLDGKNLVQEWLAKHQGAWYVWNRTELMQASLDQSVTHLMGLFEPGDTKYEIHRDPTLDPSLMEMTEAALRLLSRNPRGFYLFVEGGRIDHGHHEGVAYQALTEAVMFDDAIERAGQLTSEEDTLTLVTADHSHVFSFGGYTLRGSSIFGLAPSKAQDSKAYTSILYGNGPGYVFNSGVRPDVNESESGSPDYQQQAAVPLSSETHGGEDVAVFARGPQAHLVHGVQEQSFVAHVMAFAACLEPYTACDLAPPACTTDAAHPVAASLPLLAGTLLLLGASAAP

[7] = NIH-3T3 fibroblast cytotoxicity, dose response, cytotoxicity control, cell-based, fluorescence, Alamar Blue, secondary assay (AID 2327); format: functional;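 further: NIH-3T3 mouse fibroblasts cultured with fluconazole at 8 µg/mL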
[8] = C. albicans growth with fluconazole, confirmation, fluorescence, retest (AID 2467); format: functional, cell-based
[9] = biological target: T4, Serine/threonine-protein phosphatase (Candida dubliniensis (strain CD36 / CBS 7987 / NCPF 3949 / NRRLY-17841) (Yeast), UniProt B9W6M3); assay: calcineurin pathway inhibitors in yeast reporter, dose response, S. cerevisiae, CDRE-lacZ, luminescence, secondary (AID 2388); format: functional, cell-based;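 further: yeast reporter cells carrying a calcineurin-responsive lacZ construct stimulated with calcium chloride; luminescent beta-galactosidase reporter signal in whole cells rather than isolated phosphatase activity; potency for inhibition where a drop in reporter signal means calcineurin blockade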
T4 sequence (B9W6M3 whole entry): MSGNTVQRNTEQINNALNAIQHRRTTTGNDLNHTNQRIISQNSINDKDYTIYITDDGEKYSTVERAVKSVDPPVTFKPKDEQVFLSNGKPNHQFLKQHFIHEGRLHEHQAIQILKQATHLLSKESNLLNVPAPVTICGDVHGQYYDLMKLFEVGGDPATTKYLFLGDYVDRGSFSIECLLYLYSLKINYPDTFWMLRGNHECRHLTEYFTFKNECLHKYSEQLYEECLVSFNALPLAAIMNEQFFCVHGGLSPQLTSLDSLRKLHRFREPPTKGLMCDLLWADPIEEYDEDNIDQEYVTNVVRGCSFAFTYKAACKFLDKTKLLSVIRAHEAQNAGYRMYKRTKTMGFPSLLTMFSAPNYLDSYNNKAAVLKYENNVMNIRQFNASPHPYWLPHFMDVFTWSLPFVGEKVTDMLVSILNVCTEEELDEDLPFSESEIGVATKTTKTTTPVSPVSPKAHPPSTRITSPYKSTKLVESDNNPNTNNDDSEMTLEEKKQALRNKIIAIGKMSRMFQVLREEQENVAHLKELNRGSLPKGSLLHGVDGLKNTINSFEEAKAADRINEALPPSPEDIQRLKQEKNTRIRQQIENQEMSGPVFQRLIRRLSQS

[10] = biological target: T5, Mannose-6-phosphate isomerase (Homo sapiens, UniProt P34949); assay: human PMI inhibitors, high substrate, primary screen, biochemical, fluorescence intensity, high mannose 6-phosphate (AID 1220)
T5 sequence (P34949 whole entry): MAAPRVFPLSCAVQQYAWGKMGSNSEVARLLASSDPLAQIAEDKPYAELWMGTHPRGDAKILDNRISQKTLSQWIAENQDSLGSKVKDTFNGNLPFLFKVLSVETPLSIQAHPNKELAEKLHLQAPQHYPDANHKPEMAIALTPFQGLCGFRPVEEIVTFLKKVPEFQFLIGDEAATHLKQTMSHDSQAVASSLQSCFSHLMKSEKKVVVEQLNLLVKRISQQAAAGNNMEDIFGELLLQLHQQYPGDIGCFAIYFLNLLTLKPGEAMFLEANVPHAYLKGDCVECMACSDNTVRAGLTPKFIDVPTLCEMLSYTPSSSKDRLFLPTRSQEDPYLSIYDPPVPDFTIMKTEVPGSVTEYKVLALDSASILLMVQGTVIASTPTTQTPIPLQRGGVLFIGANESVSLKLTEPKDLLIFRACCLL

[11] = biological target: Heat shock protein HSP 90-alpha (Homo sapiens, UniProt P07900); format: functional, organism-based
[12] = biological target: T4, Serine/threonine-protein phosphatase; assay: Fluorescence Cell-Based Secondary Assay to Identify Inhibitors of Calcineurin. [Related pubchem assays (depositor defined):AID1979, AID2007]; format: functional
Genome polyprotein = Genome polyprotein (dengue virus type 2, UniProt P29990); assay: Dengue-2 NS5 methyltransferase inhibitors, primary screen, biochemical, confirmation dose response (AID 588689); format: functional
Chain of Genome polyprotein (P29990 2492-3391 limits assumed): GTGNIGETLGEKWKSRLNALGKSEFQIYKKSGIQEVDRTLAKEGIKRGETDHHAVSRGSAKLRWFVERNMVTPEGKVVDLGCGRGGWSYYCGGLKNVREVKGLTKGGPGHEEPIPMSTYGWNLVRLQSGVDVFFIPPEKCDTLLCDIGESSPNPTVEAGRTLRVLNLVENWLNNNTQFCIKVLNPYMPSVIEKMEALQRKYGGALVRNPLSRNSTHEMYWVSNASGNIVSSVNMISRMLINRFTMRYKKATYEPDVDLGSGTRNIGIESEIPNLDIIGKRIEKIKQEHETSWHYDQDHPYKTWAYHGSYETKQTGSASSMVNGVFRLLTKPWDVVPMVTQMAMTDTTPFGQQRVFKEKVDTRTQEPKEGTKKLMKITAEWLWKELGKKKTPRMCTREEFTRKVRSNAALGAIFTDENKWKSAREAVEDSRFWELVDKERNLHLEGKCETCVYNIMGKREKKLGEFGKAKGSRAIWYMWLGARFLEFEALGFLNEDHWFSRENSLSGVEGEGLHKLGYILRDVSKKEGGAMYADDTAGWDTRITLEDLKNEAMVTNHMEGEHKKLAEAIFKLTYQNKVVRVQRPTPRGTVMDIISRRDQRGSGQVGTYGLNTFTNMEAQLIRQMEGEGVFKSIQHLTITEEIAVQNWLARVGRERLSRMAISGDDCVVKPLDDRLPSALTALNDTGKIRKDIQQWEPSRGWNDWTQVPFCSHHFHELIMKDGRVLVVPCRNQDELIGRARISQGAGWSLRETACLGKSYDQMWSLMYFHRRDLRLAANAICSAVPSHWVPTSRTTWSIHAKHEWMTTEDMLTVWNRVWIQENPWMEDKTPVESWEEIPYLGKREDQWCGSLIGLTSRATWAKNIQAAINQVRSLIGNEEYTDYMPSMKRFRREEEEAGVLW

[13] = biological target: ATP-dependent molecular chaperone HSP82 (Candida albicans (strain WO-1) (Yeast), UniProt C4YTQ8); assay: loss of DOC-induced GRE-beta-galactosidase reporter signal, dose response, Hsp90 inhibitor project, S. cerevisiae, luminescence (AID 2400); format: functional, cell-based;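 further: beta-galactosidase luminescence from glucocorticoid response element reporter as proxy for Hsp90 function; inhibitor potency where signal loss means Hsp90 inhibition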
Melanocortin receptor 4 = Melanocortin receptor 4 (Homo sapiens, UniProt P32245); format: functional, cell-based;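 further: Cell-based assay with luminescence read-out, confirmatory dose-response testing for agonist activity of biased ligands at MC4R; human U2OS cells with tagged receptor and beta-arrestin; potency of agonists that increase receptor coupling to beta-arrestin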
[14] = biological target: Hepatocyte nuclear factor 4-alpha (Homo sapiens, UniProt P41235); format: functional, cell-based;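 further: biochemical luminescence-based dose-response counterscreen measuring inhibition of HNF4 dimerization, run alongside a screen for blockers of ABHD5–perilipin-5 interaction; split luciferase complementation of HNF4 fusion proteins in cell lysate measuring dimerization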
Chain of Hepatocyte nuclear factor 4-alpha (P41235 whole entry, the tested form may be a part): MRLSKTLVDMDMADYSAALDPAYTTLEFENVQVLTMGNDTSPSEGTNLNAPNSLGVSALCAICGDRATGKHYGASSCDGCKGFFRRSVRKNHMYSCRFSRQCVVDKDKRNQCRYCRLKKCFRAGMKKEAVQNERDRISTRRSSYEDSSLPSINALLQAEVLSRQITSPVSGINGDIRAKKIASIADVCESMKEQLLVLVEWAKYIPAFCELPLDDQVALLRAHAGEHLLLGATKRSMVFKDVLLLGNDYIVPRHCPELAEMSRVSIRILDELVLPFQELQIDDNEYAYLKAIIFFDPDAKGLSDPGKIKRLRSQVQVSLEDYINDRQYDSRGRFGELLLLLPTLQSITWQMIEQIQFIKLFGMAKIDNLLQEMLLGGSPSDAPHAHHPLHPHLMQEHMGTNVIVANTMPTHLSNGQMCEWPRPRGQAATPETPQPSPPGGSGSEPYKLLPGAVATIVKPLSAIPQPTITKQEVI

[15] = biological target: Glucose-6-phosphate 1-dehydrogenase (Homo sapiens, UniProt P11413); assay: human G6PD enzyme inhibitors, dose response, selectivity assay for P. falciparum G6PD inhibitor project, biochemical, fluorescence (AID 504792); format: functional
Chain of Glucose-6-phosphate 1-dehydrogenase (P11413 whole entry): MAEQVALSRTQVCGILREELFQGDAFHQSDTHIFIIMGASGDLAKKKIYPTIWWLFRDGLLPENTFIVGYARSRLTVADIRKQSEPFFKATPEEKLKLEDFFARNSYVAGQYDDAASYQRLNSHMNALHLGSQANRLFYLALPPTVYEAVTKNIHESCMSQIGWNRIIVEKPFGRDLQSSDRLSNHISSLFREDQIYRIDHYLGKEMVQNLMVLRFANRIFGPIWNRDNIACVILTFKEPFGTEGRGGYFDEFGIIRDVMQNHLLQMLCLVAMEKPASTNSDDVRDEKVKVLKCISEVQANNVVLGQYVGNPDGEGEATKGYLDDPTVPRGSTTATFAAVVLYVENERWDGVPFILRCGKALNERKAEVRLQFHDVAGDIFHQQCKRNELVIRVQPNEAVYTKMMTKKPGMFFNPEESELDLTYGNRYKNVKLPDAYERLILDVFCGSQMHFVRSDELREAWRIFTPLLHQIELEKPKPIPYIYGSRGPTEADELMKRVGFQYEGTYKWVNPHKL

[16] = biological target: T6, Short transient receptor potential channel 4 (Mus musculus, UniProt Q9QUQ5); assay: mouse TRPC4 channel activators, dose response, cell-based, HEK293 TRPC4/mu-opioid, Fluo-4 calcium (AID 434937); format: functional
T6 sequence (Q9QUQ5 whole entry): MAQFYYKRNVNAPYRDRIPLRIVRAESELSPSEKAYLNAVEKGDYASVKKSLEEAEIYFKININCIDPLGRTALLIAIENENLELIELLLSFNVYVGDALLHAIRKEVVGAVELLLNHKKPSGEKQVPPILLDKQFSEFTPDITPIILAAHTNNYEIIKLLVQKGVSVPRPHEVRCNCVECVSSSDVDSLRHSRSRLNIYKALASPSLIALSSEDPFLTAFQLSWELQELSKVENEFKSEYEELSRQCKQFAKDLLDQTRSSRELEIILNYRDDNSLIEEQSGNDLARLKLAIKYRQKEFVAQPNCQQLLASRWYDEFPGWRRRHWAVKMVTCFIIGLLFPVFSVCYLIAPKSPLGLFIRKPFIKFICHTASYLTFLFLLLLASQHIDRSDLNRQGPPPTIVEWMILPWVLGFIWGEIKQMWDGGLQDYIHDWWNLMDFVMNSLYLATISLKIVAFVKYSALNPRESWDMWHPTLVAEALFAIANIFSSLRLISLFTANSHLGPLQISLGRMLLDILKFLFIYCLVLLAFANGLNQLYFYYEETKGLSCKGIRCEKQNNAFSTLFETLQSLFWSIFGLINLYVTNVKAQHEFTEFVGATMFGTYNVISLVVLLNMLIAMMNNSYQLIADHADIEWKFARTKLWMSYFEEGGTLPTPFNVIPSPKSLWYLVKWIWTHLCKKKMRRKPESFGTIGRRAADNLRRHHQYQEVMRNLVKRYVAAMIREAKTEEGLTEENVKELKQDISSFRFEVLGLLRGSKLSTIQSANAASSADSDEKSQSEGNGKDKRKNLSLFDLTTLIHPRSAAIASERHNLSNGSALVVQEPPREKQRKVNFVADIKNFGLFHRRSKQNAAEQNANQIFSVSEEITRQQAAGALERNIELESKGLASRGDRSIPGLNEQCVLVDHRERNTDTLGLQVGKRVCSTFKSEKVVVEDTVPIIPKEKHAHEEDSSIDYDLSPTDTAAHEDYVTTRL

[17] = biological target: Delta-type opioid receptor (Homo sapiens, UniProt P41143); assay: Counterscreen for agonists of heterodimerization of the mu 1 (OPRM1) and delta 1 (OPRD1) opioid receptors: Luminescence-based cell-based high throughput dose response assay to identify agonists of OPRD1 homodimerization. [Related pubchem assays (depositor defined):AID504326, AID504355, AID504692, AID504904, AID504905]; format: functional
Chain of Delta-type opioid receptor (P41143 whole entry): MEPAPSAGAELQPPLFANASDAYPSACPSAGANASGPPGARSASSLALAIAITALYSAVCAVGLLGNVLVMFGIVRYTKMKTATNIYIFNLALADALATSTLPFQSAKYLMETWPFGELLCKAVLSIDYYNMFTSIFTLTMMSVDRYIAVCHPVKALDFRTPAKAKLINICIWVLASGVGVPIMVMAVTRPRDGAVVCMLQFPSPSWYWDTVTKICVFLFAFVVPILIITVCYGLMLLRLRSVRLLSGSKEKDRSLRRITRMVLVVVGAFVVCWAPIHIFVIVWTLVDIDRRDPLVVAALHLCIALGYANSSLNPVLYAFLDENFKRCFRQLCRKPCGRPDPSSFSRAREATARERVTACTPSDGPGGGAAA

Mu-type opioid receptor = Mu-type opioid receptor (Homo sapiens, UniProt P35372); assay: Counterscreen for agonists of heterodimerization of the mu 1 (OPRM1) and delta 1 (OPRD1) opioid receptors: Luminescence-based cell-based high throughput dose response assay to identify agonists of OPRM1 homodimerization.; format: functional;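 further: U2OS cells expressing OPRM1 and beta-arrestin as split beta-galactosidase partners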
Chain of Mu-type opioid receptor (P35372 whole entry): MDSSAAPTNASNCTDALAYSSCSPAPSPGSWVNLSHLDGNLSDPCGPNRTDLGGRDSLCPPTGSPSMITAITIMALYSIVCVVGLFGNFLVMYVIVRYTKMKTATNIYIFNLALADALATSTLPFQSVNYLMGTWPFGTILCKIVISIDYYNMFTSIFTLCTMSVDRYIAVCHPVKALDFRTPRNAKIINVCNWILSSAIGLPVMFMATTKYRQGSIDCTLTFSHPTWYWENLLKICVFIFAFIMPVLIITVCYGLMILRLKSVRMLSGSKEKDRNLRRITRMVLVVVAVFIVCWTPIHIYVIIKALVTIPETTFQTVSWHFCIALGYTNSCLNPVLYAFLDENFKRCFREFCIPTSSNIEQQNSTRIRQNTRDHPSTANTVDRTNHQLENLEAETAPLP

[18] = biological target: 5-hydroxytryptamine receptor 5A (Homo sapiens, UniProt P47898); assay: Counterscreen for agonists of OPRM1-OPRD1 heterodimerization: luminescence-based cell-based high throughput dose response assay to identify agonists of 5-hydroxytryptamine (serotonin) 5A receptor (HTR5A). [Related pubchem assays (depositor defined):AID504326, AID504355, AID504692, AID504904, AID504905]; format: functional
Chain of 5-hydroxytryptamine receptor 5A (P47898 whole entry): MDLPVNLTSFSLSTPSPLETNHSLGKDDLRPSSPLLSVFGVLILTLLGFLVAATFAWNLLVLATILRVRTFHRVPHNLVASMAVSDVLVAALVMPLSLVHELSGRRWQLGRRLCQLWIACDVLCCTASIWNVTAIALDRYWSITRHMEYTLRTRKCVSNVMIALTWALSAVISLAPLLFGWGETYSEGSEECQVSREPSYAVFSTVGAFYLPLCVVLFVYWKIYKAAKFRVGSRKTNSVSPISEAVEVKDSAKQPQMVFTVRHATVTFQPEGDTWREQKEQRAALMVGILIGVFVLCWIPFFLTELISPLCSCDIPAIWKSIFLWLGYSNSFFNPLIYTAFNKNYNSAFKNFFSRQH

Chain of Beta-galactosidase (Q8VNN2 whole entry): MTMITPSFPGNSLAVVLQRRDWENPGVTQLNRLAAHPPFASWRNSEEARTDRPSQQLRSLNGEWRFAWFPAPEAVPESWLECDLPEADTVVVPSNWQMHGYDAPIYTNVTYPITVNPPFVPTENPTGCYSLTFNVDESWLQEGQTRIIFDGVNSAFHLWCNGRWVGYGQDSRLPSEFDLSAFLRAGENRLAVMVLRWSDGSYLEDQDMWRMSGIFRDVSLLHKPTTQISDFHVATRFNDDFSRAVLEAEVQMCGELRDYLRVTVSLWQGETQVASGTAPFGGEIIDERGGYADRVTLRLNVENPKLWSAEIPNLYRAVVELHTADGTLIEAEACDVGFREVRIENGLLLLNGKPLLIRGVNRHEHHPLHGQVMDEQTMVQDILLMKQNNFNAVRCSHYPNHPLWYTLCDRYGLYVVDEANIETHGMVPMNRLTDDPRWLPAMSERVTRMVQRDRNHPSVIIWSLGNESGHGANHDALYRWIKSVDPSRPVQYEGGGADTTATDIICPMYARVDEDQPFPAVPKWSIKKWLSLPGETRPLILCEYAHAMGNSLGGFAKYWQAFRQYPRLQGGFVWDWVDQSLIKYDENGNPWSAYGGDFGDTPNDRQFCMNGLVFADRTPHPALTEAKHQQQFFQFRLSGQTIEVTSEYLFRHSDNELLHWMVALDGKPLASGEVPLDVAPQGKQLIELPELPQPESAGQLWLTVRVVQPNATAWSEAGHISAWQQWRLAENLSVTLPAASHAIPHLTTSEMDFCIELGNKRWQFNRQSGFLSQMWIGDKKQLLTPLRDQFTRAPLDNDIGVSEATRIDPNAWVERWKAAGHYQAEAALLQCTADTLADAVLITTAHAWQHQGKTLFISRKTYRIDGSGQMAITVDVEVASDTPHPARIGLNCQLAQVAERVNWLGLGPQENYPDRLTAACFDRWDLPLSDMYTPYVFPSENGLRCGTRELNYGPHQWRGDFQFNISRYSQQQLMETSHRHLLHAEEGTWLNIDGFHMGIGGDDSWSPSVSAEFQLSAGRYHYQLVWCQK

CCN(CC)c1ccc(C(=O)NC(=S)Nc2cc(S(=O)(=O)N3CCOCC3)ccc2-n2cncn2)cc1
EC50 (Beta-galactosidase): > 40 µM (inactive) | IC50 [1]: > 40 µM (not active) | IC50 [2]: 9.89 µM (not active)

O=C1CC(c2ccc(O)c(O)c2)Oc2c1ccc(O)c2O (stereo unspecified)
IC50 (Large T antigen): 1.91 µM (active) | IC50 [3]: 2.99 µM (active) | IC50 [4]: 14.8 µM (active) | IC50 [5]: > 100 µM (inactive) | IC50 [6]: 24.8 µM (active)

Cc1ccc(C(=O)c2coc3c2C(=O)C(=O)c2ccccc2-3)cc1
EC50 [7]: 27.9 µM (active) | EC50 [8]: 0.983 µM (active) | EC50 [9]: 3.78 µM (active) | IC50 [10]: > 50 µM (not active) | AC50 [11]: 3.84 µM (active) | EC50 [12]: 9.27 µM (active) | IC50 (Genome polyprotein): 55 µM (active) | EC50 [13]: 1.21 µM (active) | EC50 (Melanocortin receptor 4): > 89.2 µM (inactive) | IC50 [14]: 3.8 µM (active)

Cc1ccc(/C=C/C(=O)N2CCN(S(=O)(=O)c3ccc(C)c(C)c3)CC2)o1
IC50 [15]: > 80 µM (inactive)

CN(C)C(CN=C(S)Nc1ccccc1Cl)c1cccnc1 (stereo unspecified)
EC50 [16]: 0.0333 µM (active) | EC50 [17]: 26.9 µM (inactive) | EC50 (Mu-type opioid receptor): 3.64 µM (active) | EC50 [18]: > 92.5 µM (inactive)

CCOC(=O)C1(c2ccccc2)CCN(CCC(=O)Nc2ccc(F)cc2)CC1
EC50 [17]: > 92.5 µM (inactive) | EC50 (Mu-type opioid receptor): > 92.5 µM (inactive) | EC50 [18]: > 92.5 µM (inactive)
